In ChEMBL document CHEMBL1201862, “PubChem BioAssay data set” (2004):
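48-hour exposure; five concentrations; linearly interpolated endpoints. Abbreviation: GI50, concentration required for 50% inhibition of growth.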 Calls of active or inactive are those of the source. No stated cut-off is given here; in the data, active = GI50 up to about 1.1 µM and inactive = higher.

Columns and labels:
Assay in all cases: NCI tumour cell line growth inhibition, 48 h
A549 = system: A549
HCT-116 = system: HCT-116
SK-MEL-28 = system: SK-MEL-28
EKVX = system: EKVX
SNB-19 = system: SNB-19
MDA-MB-231 = system: MDA-MB-231
NCI-H226 = system: NCI-H226
HCT-15 = system: HCT-15
RXF 393 = system: RXF 393
SR = system: SR
LOX IMVI = system: LOX IMVI
CCRF-CEM = system: CCRF-CEM
OVCAR-4 = system: OVCAR-4
SF-295 = system: SF-295
PC-3 = system: PC-3
SN12C = system: SN12C
COLO 205 = system: COLO 205
SK-OV-3 = system: SK-OV-3
T47D = system: T47D
MCF7 = system: MCF7
HOP-62 = system: HOP-62
HL-60 = system: HL-60
NCI-H460 = system: NCI-H460
ACHN = system: ACHN
A498 = system: A498
NCI/ADR-RES = system: NCI/ADR-RES
OVCAR-3 = system: OVCAR-3
OVCAR-5 = system: OVCAR-5
UO-31 = system: UO-31
MOLT-4 = system: MOLT-4
HCC 2998 = system: HCC 2998
NCI-H23 = system: NCI-H23
RPMI-8226 = system: RPMI-8226
HT-29 = system: HT-29
OVCAR-8 = system: OVCAR-8
SNB-75 = system: SNB-75
KM12 = system: KM12
786-0 = system: 786-0
Hs-578T = system: Hs-578T
SK-MEL-2 = system: SK-MEL-2
SF-539 = system: SF-539
SW-620 = system: SW-620
UACC-257 = system: UACC-257
MDA-MB-435 = system: MDA-MB-435
U-251 = system: U-251
BT-549 = system: BT-549
IGROV-1 = system: IGROV-1
K562 = system: K562
CAKI-1 = system: CAKI-1
M14 = system: M14
DU-145 = system: DU-145
TK-10 = system: TK-10
Malme-3M = system: Malme-3M
HOP-92 = system: HOP-92
SF-268 = system: SF-268
NCI-H522 = system: NCI-H522
UACC-62 = system: UACC-62
MDA-N = system: MDA-N
SK-MEL-5 = system: SK-MEL-5

## COc1cc(C2c3cc4c(cc3OC(N3CCNCC3)C2C)OCO4)cc(OC)c1OC (configuration not stated)
A549
  GI50: 1.79 µM (inactive)
HCT-116
  GI50: 0.56 µM (active)
SK-MEL-28
  GI50: 2.85 µM (inactive)
EKVX
  GI50: 6.38 µM (inactive)
SNB-19
  GI50: 0.912 µM (active)
MDA-MB-231
  GI50: 0.403 µM (active)
NCI-H226
  GI50: 1.83 µM (inactive)
HCT-15
  GI50: 0.893 µM
RXF 393
  GI50: 0.3 µM (active)
SR
  GI50: 0.441 µM (active)
LOX IMVI
  GI50: 0.871 µM (active)
CCRF-CEM
  GI50: 0.538 µM (active)
OVCAR-4
  GI50: 1.66 µM (inactive)
SF-295
  GI50: 0.234 µM (active)
PC-3
  GI50: 0.456 µM (active)
SN12C
  GI50: 2.59 µM (inactive)
COLO 205
  GI50: 0.416 µM (active)
SK-OV-3
  GI50: 0.476 µM (active)
T47D
  GI50: 0.979 µM (active)
MCF7
  GI50: 0.385 µM (active)
HOP-62
  GI50: 1.13 µM (inactive)
HL-60
  GI50: 0.288 µM (active)
NCI-H460
  GI50: 0.94 µM (active)
ACHN
  GI50: 1.75 µM (inactive)
A498
  GI50: 0.726 µM (active)
NCI/ADR-RES
  GI50: 0.597 µM (active)
OVCAR-3
  GI50: 0.204 µM (active)
OVCAR-5
  GI50: 5.13 µM (inactive)
UO-31
  GI50: 1.69 µM (inactive)
MOLT-4
  GI50: 1.16 µM (inactive)
HCC 2998
  GI50: 2.26 µM (inactive)
NCI-H23
  GI50: 1.09 µM (active)
RPMI-8226
  GI50: 0.804 µM (active)
HT-29
  GI50: 0.387 µM (active)
OVCAR-8
  GI50: 2.93 µM (inactive)
SNB-75
  GI50: 0.262 µM (active)
KM12
  GI50: 0.441 µM (active)
786-0
  GI50: 0.746 µM (active)
Hs-578T
  GI50: 0.17 µM (active)
SK-MEL-2
  GI50: 1 µM (active)
SF-539
  GI50: 0.344 µM (active)
SW-620
  GI50: 0.445 µM (active)
UACC-257
  GI50: 3.75 µM (inactive)
MDA-MB-435
  GI50: 0.269 µM (active)
U-251
  GI50: 0.675 µM (active)
BT-549
  GI50: 0.579 µM (active)
IGROV-1
  GI50: 1.17 µM (inactive)
K562
  GI50: 0.413 µM (active)
CAKI-1
  GI50: 0.476 µM (active)
M14
  GI50: 0.873 µM (active)
DU-145
  GI50: 0.594 µM (active)
TK-10
  GI50: 20.7 µM (inactive)
Malme-3M
  GI50: 0.294 µM (active)
HOP-92
  GI50: 0.748 µM (active)
SF-268
  GI50: 0.836 µM (active)
NCI-H522
  GI50: 0.861 µM (active)
UACC-62
  GI50: 0.516 µM (active)
MDA-N
  GI50: 0.253 µM (active)
SK-MEL-5
  GI50: 0.38 µM (active)

## CSC(=S)Nc1cc(C)cc(C)n1
A549
  GI50: > 31.6 µM (inactive)
HCT-116
  GI50: > 10 µM (inactive)
SK-MEL-28
  GI50: > 31.6 µM (inactive)
EKVX
  GI50: > 31.6 µM (inactive)
SNB-19
  GI50: > 31.6 µM (inactive)
MDA-MB-231
  GI50: > 100 µM (inactive)
NCI-H226
  GI50: > 31.6 µM (inactive)
HCT-15
  GI50: > 31.6 µM
RXF 393
  GI50: > 31.6 µM (inactive)
SR
  GI50: > 10 µM (inactive)
LOX IMVI
  GI50: > 31.6 µM (inactive)
CCRF-CEM
  GI50: > 31.6 µM (inactive)
OVCAR-4
  GI50: > 31.6 µM (inactive)
SF-295
  GI50: > 31.6 µM (inactive)
PC-3
  GI50: > 31.6 µM (inactive)
SN12C
  GI50: > 31.6 µM (inactive)
COLO 205
  GI50: > 31.6 µM (inactive)
SK-OV-3
  GI50: > 31.6 µM (inactive)
T47D
  GI50: > 31.6 µM (inactive)
MCF7
  GI50: > 31.6 µM (inactive)
HOP-62
  GI50: > 100 µM (inactive)
HL-60
  GI50: > 31.6 µM (inactive)
NCI-H460
  GI50: > 31.6 µM (inactive)
ACHN
  GI50: > 31.6 µM (inactive)
A498
  GI50: > 100 µM (inactive)
NCI/ADR-RES
  GI50: > 31.6 µM (inactive)
OVCAR-3
  GI50: > 31.6 µM (inactive)
OVCAR-5
  GI50: > 31.6 µM (inactive)
UO-31
  GI50: > 31.6 µM (inactive)
MOLT-4
  GI50: > 31.6 µM (inactive)
HCC 2998
  GI50: > 31.6 µM (inactive)
NCI-H23
  GI50: > 31.6 µM (inactive)
RPMI-8226
  GI50: > 31.6 µM (inactive)
HT-29
  GI50: > 31.6 µM (inactive)
OVCAR-8
  GI50: > 31.6 µM (inactive)
SNB-75
  GI50: > 10 µM (inactive)
KM12
  GI50: > 31.6 µM (inactive)
786-0
  GI50: 22.4 µM (inactive)
Hs-578T
  GI50: > 31.6 µM (inactive)
SK-MEL-2
  GI50: > 31.6 µM (inactive)
SF-539
  GI50: > 100 µM (inactive)
SW-620
  GI50: > 31.6 µM (inactive)
UACC-257
  GI50: > 31.6 µM (inactive)
MDA-MB-435
  GI50: > 31.6 µM (inactive)
U-251
  GI50: > 31.6 µM (inactive)
BT-549
  GI50: > 100 µM (inactive)
IGROV-1
  GI50: > 100 µM (inactive)
K562
  GI50: > 31.6 µM (inactive)
CAKI-1
  GI50: > 31.6 µM (inactive)
M14
  GI50: > 31.6 µM (inactive)
DU-145
  GI50: > 31.6 µM (inactive)
TK-10
  GI50: > 31.6 µM (inactive)
Malme-3M
  GI50: > 31.6 µM (inactive)
HOP-92
  GI50: > 31.6 µM (inactive)
SF-268
  GI50: > 31.6 µM (inactive)
NCI-H522
  GI50: 18.7 µM (inactive)
UACC-62
  GI50: > 31.6 µM (inactive)
MDA-N
  GI50: > 31.6 µM (inactive)
SK-MEL-5
  GI50: > 66.4 µM (inactive)

## COc1cc(N(CCC#N)CCC#N)ccc1/C=C1\SC(=S)NC1=O
A549
  GI50: > 100 µM (inactive)
HCT-116
  GI50: > 100 µM (inactive)
SK-MEL-28
  GI50: > 100 µM (inactive)
EKVX
  GI50: > 100 µM (inactive)
SNB-19
  GI50: > 100 µM (inactive)
MDA-MB-231
  GI50: > 100 µM (inactive)
NCI-H226
  GI50: > 100 µM (inactive)
HCT-15
  GI50: > 100 µM
RXF 393
  GI50: > 100 µM (inactive)
SR
  GI50: > 100 µM (inactive)
LOX IMVI
  GI50: > 100 µM (inactive)
CCRF-CEM
  GI50: > 100 µM (inactive)
OVCAR-4
  GI50: > 100 µM (inactive)
SF-295
  GI50: > 100 µM (inactive)
PC-3
  GI50: > 100 µM (inactive)
SN12C
  GI50: > 100 µM (inactive)
COLO 205
  GI50: > 100 µM (inactive)
SK-OV-3
  GI50: > 100 µM (inactive)
T47D
  GI50: > 100 µM (inactive)
MCF7
  GI50: > 100 µM (inactive)
HOP-62
  GI50: > 100 µM (inactive)
HL-60
  GI50: > 100 µM (inactive)
NCI-H460
  GI50: > 100 µM (inactive)
ACHN
  GI50: > 100 µM (inactive)
A498
  GI50: > 100 µM (inactive)
NCI/ADR-RES
  GI50: > 100 µM (inactive)
OVCAR-3
  GI50: > 100 µM (inactive)
OVCAR-5
  GI50: > 100 µM (inactive)
UO-31
  GI50: > 100 µM (inactive)
MOLT-4
  GI50: > 100 µM (inactive)
HCC 2998
  GI50: > 100 µM (inactive)
NCI-H23
  GI50: > 100 µM (inactive)
RPMI-8226
  GI50: > 100 µM (inactive)
HT-29
  GI50: > 100 µM (inactive)
OVCAR-8
  GI50: > 100 µM (inactive)
SNB-75
  GI50: > 100 µM (inactive)
KM12
  GI50: > 100 µM (inactive)
786-0
  GI50: > 100 µM (inactive)
Hs-578T
  GI50: > 100 µM (inactive)
SK-MEL-2
  GI50: > 100 µM (inactive)
SF-539
  GI50: > 100 µM (inactive)
SW-620
  GI50: > 100 µM (inactive)
UACC-257
  GI50: > 100 µM (inactive)
MDA-MB-435
  GI50: > 100 µM (inactive)
U-251
  GI50: > 100 µM (inactive)
BT-549
  GI50: > 100 µM (inactive)
IGROV-1
  GI50: > 100 µM (inactive)
K562
  GI50: > 100 µM (inactive)
CAKI-1
  GI50: > 100 µM (inactive)
M14
  GI50: > 100 µM (inactive)
DU-145
  GI50: > 100 µM (inactive)
TK-10
  GI50: > 100 µM (inactive)
Malme-3M
  GI50: > 100 µM (inactive)
HOP-92
  GI50: > 100 µM (inactive)
SF-268
  GI50: > 100 µM (inactive)
NCI-H522
  GI50: > 100 µM (inactive)
UACC-62
  GI50: > 100 µM (inactive)
MDA-N
  GI50: > 100 µM (inactive)
SK-MEL-5
  GI50: > 100 µM (inactive)
